Laboratory results as given in US5683668A, “Method of generating nitric oxide gas using nitric oxide complexes” (The United States of America as represented by the …, priority 1996, dated 1997).
Where two headings read alike, the source gives them in different places.

What was measured:
[1] = Stability of the adducts as solids; format: physicochemical; conditions: applicant's statements; room temperature, closed containers or air
[2] = unless stored at -78° C.; prior art salts; cited from earlier work
[3] = % NO by weight of the NO complexes; format: physicochemical
[4] = NO release half-life by disappearance of UV absorption in phosphate buffer; format: physicochemical
Description: Ultraviolet data were obtained in 0.01M NaOH to avoid this degradation problem. […] Kinetic data were obtained by diluting stock solutions (0.01M NaOH) of each compound with pH 7.4 phosphate buffer (0.1M) as needed to produce final solutions having compound concentrations in the range of 90-120 μM.

[5] = Equivalents of NO released at 22° C.; format: physicochemical
[6] = % NO yield on acid release, thermal energy analyzer (TEA); format: physicochemical; conditions: weight percent of the theoretical maximum, dilute aqueous HCl
Description: NO gas was generated from compounds 2, 6, 10, 11, and 14 of Example 1, as well as H2 N(CH2)3 N[N(O)NO^- ](CH2)4 NH(CH2)3 NH3^+, using the procedure set forth below. The percent NO yield was then calculated for each of these NO adducts.
The apparatus comprises a first vessel 10 having an inlet 11 and an outlet 12 and contains mineral oil (or other heavy liquid) to prevent backflow. The outlet 12 of vessel 10 is connected to a first inlet 21 of second vessel 20, which also has a second inlet 22 and an outlet 23. The second vessel 20 contained either the solid NO complex or an aqueous solution of the NO complex. An addition funnel 30 is connected to the second inlet 22 of second vessel 20 so as to provide a means of introducing dilute aqueous HCl into second vessel 20. The outlet 23 of second vessel 20 is connected to the inlet 41 of condenser 40, and the outlet 42 of condenser 40 is connected to the inlet 51 of third vessel 50. The condenser 40 and third vessel 50 function to capture any mist carried through the apparatus in the gas stream. The outlet 52 of third vessel 50 is connected to drying towers 60 and 70 which contain desiccant such as calcium chloride or molecular sieves and contain an outlet 71 for gas passage.
In use, nitrogen gas was passed through the apparatus through the inlet 11 of first vessel 10 to flush oxygen from the apparatus. Acidic solution was then introduced into second vessel 20 by way of addition funnel 30, and NO gas was generated in second vessel 20. The thus generated NO gas flowed through the outlet 23 of second vessel 20, through the condenser 40, into the third vessel 50, into the drying towers 60 and 70, and out the […].
The NO gas released through the outlet 71 of drying column 70 was fed into a thermal energy analyzer (TEA), which generates a signal proportional to the quantity of NO gas present. The yield of NO gas, as a weight percent of the theoretical maximum, obtained for each of the compounds tested is given in Table III.

[7] = NO gas yield measured volumetrically in a gas buret; format: physicochemical
Description: In a separate series of experiments, the generated gas was also collected in a gas buret and the yields were measured volumetrically. Yields ranged from 70-90% of theoretical. For example, when 1.0 g of CH3 N(N2 O2^-)CH2 CH2 NH3^+ was added to 5 ml concentrated H2 SO4, 285 ml NO gas (85%) was trapped in the buret.

[8] = Refrigerated storage stability by combustion analysis; format: physicochemical; conditions: refrigerator, several months
From the text: Samples of compound 11 of Example 1 were stored in a refrigerator over the course of several months.

[9] = 22° C., pH 7.4, 0.1M phosphate buffer, read-out: t1/2
[10] = phosphate buffer, buffered aqueous solution, pH 7.4, 22° C., read-out: half-life (converted)

For `CC(C)N(CCCN)[N+]([O-])=NO.CC(C)NCCCN`, the stability as solid [1] was “not stable enough to obtain combustion analytical data”.
For `CC(C)N/[N+]([O-])=N/O`, the “stability in the solid state” value [2] is given as “slow decomposition even in the solid state unless stored at -78 °C”.
For `CCN(CC)[N+]([O-])=NO` [CH3 CH2 N(N2 O2^-)CH2 CH3.Na^+, reference compound], the “% NO By Wt.” value [3] was 38.7%.
In the case of `CC(C)N(CCCN)[N+]([O-])=NO` [Compound 1, 1-Hydroxy-2-oxo-3-(3-aminopropyl)-3-isopropyl-1-triazene], the half-life [4, 9] is reported as 1.55 h.
With `CNCCN(C)[N+]([O-])=NO` [Compound 2, 1-Hydroxy-2-oxo-3-(N-methyl-2-aminoethyl)-3-methyl-1-triazene] the half-life [4, 9] was 0.602 h, the half-life [4, 10] was 0.602 h and the “equivalents of NO released” value [5] was “two equivalents”. The “% NO By Wt.” value [3] was 40.5% and the “% NO Yield” value [6] was 98%.
In the case of `CNCCCN(C)[N+]([O-])=NO` [Compound 3, 1-Hydroxy-2-oxo-3-(N-methyl-3-aminopropyl)-3-methyl-1-triazene], the half-life [4, 9] is reported as 0.168 h and the half-life [4, 10] is reported as 0.168 h.
For `CNCCCCN(C)[N+]([O-])=NO` [Compound 4, 1-Hydroxy-2-oxo-3-(N-methyl-4-aminobutyl)-3-methyl-1-triazene], the half-life [4, 9] was 0.0217 h and the half-life [4, 10] was 0.0217 h.
Compound `CNCCCCCCN(C)[N+]([O-])=NO` [Compound 5, 1-Hydroxy-2-oxo-3-(N-methyl-6-aminohexyl)-3-methyl-1-triazene] has a half-life [4, 9] of 0.045 h.
With `CN(CCN)[N+]([O-])=NO` [Compound 6, 1-Hydroxy-2-oxo-3-(2-aminoethyl)-3-methyl-1-triazene] the half-life [4, 9] was 0.667 h, the half-life [4, 10] was 0.667 h and the “equivalents of NO released” value [5] was “two equivalents”. The “% NO By Wt.” value [3] was 45%, the “% NO By Wt.” value ([3]; listed as CH3 N(N2 O2^-)CH2 CH2 NH3^+) was 44.7% and the “% NO Yield” value [6] was 110%. For the same compound, the “volume of NO gas trapped” value ([7]; 1.0 g adduct added to 5 ml concentrated H2 SO4) was 285 mL and the “volumetric NO yield” value ([7]; percent of theoretical, gas buret) was 85%.
For `CCN(CCN)[N+]([O-])=NO` [Compound 7, 1-Hydroxy-2-oxo-3-(2-aminoethyl)-3-ethyl-1-triazene], the half-life [4, 9] was 5.55 h, the half-life [4, 10] was 5.55 h and the “% NO By Wt.” value [3] was 40.5%.
In the case of `CCNCCN(CC)[N+]([O-])=NO` [Compound 8, 1-Hydroxy-2-oxo-3-(N-ethyl-2-aminoethyl)-3-ethyl-1-triazene], the half-life [4, 9] is reported as 5.45 h, the “equivalents of NO released” value [5] is reported as “two equivalents” and the “% NO By Wt.” value [3] is reported as 34.1%.
With `CN(CCCN)[N+]([O-])=NO` [Compound 9, 1-Hydroxy-2-oxo-3-(3-aminopropyl)-3-methyl-1-triazene] the half-life [4, 9] was 0.228 h.
For `CCNCCCN(CC)[N+]([O-])=NO` [Compound 10, 1-Hydroxy-2-oxo-3-(N-ethyl-3-aminopropyl)-3-ethyl-1-1-triazene], the half-life [4, 9] was 1.2 h and the “% NO Yield” value [6] was 100%.
In the case of `CCCN(CCCN)[N+]([O-])=NO` [Compound 11, 1-Hydroxy-2-oxo-3-(3-aminopropyl)-3-propyl-1-triazene], the half-life [4, 9] is reported as 1.28 h, the “equivalents of NO released” value [5] is reported as “two equivalents” and the “% NO Yield” value [6] is reported as 110%. The “change in elemental composition on storage” value [8] was “no change in elemental composition was observed”.
Compound `CC(C)NCCCN(C(C)C)[N+]([O-])=NO` [Compound 12, 1-Hydroxy-2-oxo-3-(N-isopropyl-3-aminopropyl)-3-isopropyl-1-triazene] has a half-life [4, 9] of 1.48 h.
In the case of `NCCCN(C1CCCCC1)[N+]([O-])=NO` [Compound 13, 1-Hydroxy-2-oxo-3-(3-aminopropyl)-3-cyclohexyl-1-triazene], the half-life [4, 9] is reported as 1.92 h.
For `NCCN(CCN)[N+]([O-])=NO` [Compound 14, 1-Hydroxy-2-oxo-3,3-di (2-aminoethyl)-1-triazene], the half-life [4, 9] was 56.7 h, the “half-life (in words)” value ([4]; comparison between adducts differing in R' or type) was “too stable to permit monitoring over a sufficient number of half-lives” and the “half-life relative to the diethylamine/NO adduct” value ([4]; fold over diethylamine/NO adduct) was “over 200 times”. The half-life [4, 10] was 56 h, the “equivalents of NO released” value [5] was “two equivalents” and the “% NO By Wt.” value [3] was 36.8%. The “% NO Yield” value [6] was 97%.
For `NCCCN(CCCN)[N+]([O-])=NO` [Compound 15, 1-Hydroxy-2-oxo-3,3-di(3-aminopropyl)-1-triazene], the half-life [4, 9] was 4.73 h.
In the case of `NCCCCN(CCCN)[N+]([O-])=NO` [Compound 16, 1-Hydroxy-2-oxo-3-(3-aminopropyl)-3-(4-aminobutyl)-1-triazene], the half-life [4, 9] is reported as 2.75 h and the stability as solid [1] is reported as “hygroscopic”.
For `CCN(CC)[N+]([O-])=NO` [DEA/NO], the “stability in the solid state” value [2] is given as “slow decomposition even in the solid state unless stored at -78 °C”.
With `NCCCNCCCCN(CCCN)[N+]([O-])=NO` [spermine/NO adduct] the “equivalents of NO released” value [5] was “two equivalents” and the “% NO Yield” value [6] was 95%.
